# Source: publication PMC8041823, “Structural comparison of Acinetobacter baumannii β-ketoacyl-acyl carrier protein reductases in fatty acid and aryl polyene biosynthesis” (Scientific Reports, 2021)
# Target: T1, AbApeQ (Acinetobacter baumannii, UniProt Z9NHK5QJZ4)
# T1 construct: full-length, pET28a, N-terminal His-tag removed with thrombin, expressed in E. coli BL21 (DE3)
# Experiment: X-ray crystallography (co-crystallization)
# Format: binding
# Details: 1:3 molar ratio of NADPH; 0.2 M potassium sodium tartrate, 20% PEG 3350; active site; NADPH density in two of four molecules
smiles,measurement,value
NC(=O)C1=CN([C@@H]2O[C@H](COP(=O)(O)OP(=O)(O)OC[C@H]3O[C@@H](n4cnc5c(N)ncnc54)[C@H](OP(=O)(O)O)[C@@H]3O)[C@@H](O)[C@H]2O)C=CC1 [NADPH],X-ray crystallography (co-crystallization),We obtained the structure of the AbApeQ–NADPH complex by co-crystallization of AbApeQ and NADPH.
